Data published in ChEMBL document CHEMBL4665661, “Design, synthesis, and biological activity evaluation of (-)-6-O-desmethylantofine analogues as potent anti-cancer agents” (Bioorg Med Chem, 2019).
Activity calls are given as the source filed them. The calls are words filed in the database; no cut-off is given here.

How the values were obtained:
[1] = test system: U-118-MG; test: Antiproliferative activity against human U-118-MG cells incubated for 72 hrs by MTT assay; format: functional, cell-based
[2] = test system: A549; test: Antiproliferative activity against human A549 cells incubated for 72 hrs by MTT assay; format: functional, cell-based
[3] = test system: MCF7; test: Antiproliferative activity against human MCF7 cells incubated for 72 hrs by MTT assay; format: functional, cell-based
[4] = test system: KATO III; test: Antiproliferative activity against human […] cells incubated for 72 hrs by MTT assay; format: functional, cell-based
[5] = test system: SGC-7901; test: Antiproliferative activity against human SGC-7901 cells incubated for 72 hrs by MTT assay; format: functional, cell-based
[6] = test system: BEL-7404 tumor cell line; test: Antiproliferative activity against human BEL-7404 cells incubated for 72 hrs by MTT assay; format: functional, cell-based
[7] = test system: SK-HEP1; test: Antiproliferative activity against human SK-HEP 1 cells incubated for 72 hrs by MTT assay; format: functional, cell-based
[8] = test system: SU-DHL-6; test: Antiproliferative activity against human SU-DHL-6 cells incubated for 72 hrs by MTT assay; format: functional, cell-based
[9] = test system: KB; test: Antiproliferative activity against human KB cells incubated for 72 hrs by MTT assay; format: functional, cell-based
[10] = test system: Detroit 562; test: Antiproliferative activity against human Detroit 562 cells incubated for 72 hrs by MTT assay; format: functional, cell-based
[11] = test system: SK-OV-3; test: Antiproliferative activity against human SK-OV-3 cells incubated for 72 hrs by MTT assay; format: functional, cell-based
[12] = test system: SJRH30; test: Antiproliferative activity against human SJRH30 cells incubated for 72 hrs by MTT assay; format: functional, cell-based
[13] = test system: Zip177; test: Cell cycle arrest in human Zip177 cells assessed as inhibition of DNA synthesis by measuring increase in cell population at S phase at 20 to 200 nM after 24 hrs by RNase A/propidium iodide staining-based flow cytometric analysis; format: functional
[14] = test system: Bel-7402; test: Inhibition of DNA synthesis in human Bel-7402 cells assessed as Brdu positive cells at 0.1 uM measured after 1 hr by propidium iodide staining-based BrdU incorporation assay (reference value: 29.8%); format: functional; design: scale not given: the % may be the effect or the level left; conditions: time 30 min, 0.5 h
[15] = test system: Bel-7402; test: Induction of apoptosis in human Bel-7402 cells assessed as viable cells at 0.01 uM after 72 hrs by FITC-annexin V/propidium iodide-double staining based flow cytometry (reference value: 93.6%); format: functional; conditions: read-out: Activity
[16] = test system: Bel-7402; test: Induction of apoptosis in human Bel-7402 cells assessed as early apoptotic cells at 0.01 uM after 72 hrs by FITC-annexin V/propidium iodide-double staining based flow cytometry (reference value: 0.65%); format: functional
[17] = test system: Bel-7402; test: Induction of apoptosis in human Bel-7402 cells assessed as late apoptotic cells at 0.01 uM after 72 hrs by FITC-annexin V/propidium iodide-double staining based flow cytometry (reference value: 3.06%); format: functional
[18] = test system: Bel-7402; test: Induction of apoptosis in human Bel-7402 cells assessed as viable cells at 1 uM after 72 hrs by FITC-annexin V/propidium iodide-double staining based flow cytometry (reference value: 93.6%); format: functional; conditions: read-out: Activity
[19] = test system: Bel-7402; test: Induction of apoptosis in human Bel-7402 cells assessed as early apoptotic cells at 1 uM after 72 hrs by FITC-annexin V/propidium iodide-double staining based flow cytometry (reference value: 0.65%); format: functional
[20] = test system: Bel-7402; test: Induction of apoptosis in human Bel-7402 cells assessed as late apoptotic cells at 1 uM after 72 hrs by FITC-annexin V/propidium iodide-double staining based flow cytometry (reference value: 3.06%); format: functional
[21] = Antiproliferative activity against drug-resistant human KB/VCR cells; format: functional, cell-based
[22] = test system: KB; test: Antiproliferative activity against human KB cells; format: functional, cell-based
[23] = test system: Bel-7402; test: Cell cycle arrest in human Bel-7402 cells assessed as increase in cell population at S phase at 33 nM by RNase A/propidium iodide staining-based flow cytometric analysis (reference value: 26.3%); format: functional
[24] = test system: KB; test: Cell cycle arrest in human KB cells assessed as inhibition of DNA synthesis by measuring increase in cell population at S phase at 1 to 10 nM upto 12 hrs by RNase A/propidium iodide staining-based flow cytometric analysis; format: functional; conditions: dose nM 1-10, time hrs <=12
[25] = test system: KB; test: Cell cycle arrest in drug- resistant human KB/VCR cells assessed as inhibition of DNA synthesis by measuring increase in cell population at S phase at 1 to 10 nM upto 12 hrs by RNase A/propidium iodide staining-based flow cytometric analysis; format: functional; conditions: dose nM 1-10, time hrs <=12

IC50 [22]: 1100 nM
Structure (SMILES): COc1cc2c3c(c4ccc(OCC#N)cc4c2cc1OC)CN1CCC[C@@H]1C3
inhibition [1]: Active
inhibition [2]: Active
inhibition [3]: Active
inhibition [4]: Active
inhibition [5]: Active
inhibition [6]: Active
inhibition [7]: Active
inhibition [8]: Active
inhibition [9]: Active
inhibition [10]: Active
inhibition [11]: Active
inhibition [12]: Active
Activity [13]: Active
Activity [14]: 13%
viability at 0.01 µM [15]: 96.3%
Activity [16]: 0.55%
Activity [17]: 1.55%
viability at 1 µM [18]: 79.2%
Activity [19]: 1.6%
Activity [20]: 15.5%
IC50 [21]: 600 nM
Activity [23]: 34%
Activity [24]: Active
Activity [25]: Active
